The text below walks through data of PubChem BioAssay (NCI).

Among the test systems are NCI/ADR-RES ovarian; OVCAR-5 ovarian; OVCAR-8 ovarian; BT-549 breast; RPMI-8226 leukemia; NCI-H226 lung; OVCAR-4 ovarian; HOP-92 NSCLC; HCT-116 colon; MDA-MB-435.
Assay in all cases: NCI-60 cell line screen, 48 h

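A five-concentration, 48-hour dose response in 96-well plates underlies each endpoint, interpolated linearly between surrounding concentrations. GI50 marks 50% less growth. TGI denotes the concentration required for complete inhibition of growth.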

In the case of `CC(=O)OC12C=CC(=O)N1c1ccccc1C(=O)O2` (configuration not stated), the GI50 with NCI/ADR-RES ovarian was over 100 µM; with BT-549 breast, over 100000 nM; with MDA-MB-435 it was over 100000 nM. For the same molecule, the TGI in the assay with NCI/ADR-RES ovarian, in the assay on OVCAR-5 ovarian, in the assay with OVCAR-8 ovarian, in the assay on BT-549 breast, in the assay with RPMI-8226 leukemia and with NCI-H226 lung was over 100 µM in each case. The TGI in the assay on OVCAR-4 ovarian, with HOP-92 NSCLC, with HCT-116 colon and with MDA-MB-435 was over 100 µM in each case.
As to `O=C(N[C@@H](c1ccc(Cl)c(Cl)c1)C1CNC1)c1ccc2cnccc2c1`, the GI50 in the assay on NCI/ADR-RES ovarian was 12.1 µM; in the assay on OVCAR-5 ovarian, 340 nM; in the assay with OVCAR-8 ovarian, 1450 nM; in the assay with BT-549 breast it was 301 nM; in the assay with RPMI-8226 leukemia, 1560 nM; in the assay with NCI-H226 lung, 626 nM. The GI50 is 1800 nM in the assay with OVCAR-4 ovarian, 44.4 nM with HOP-92 NSCLC, 330 nM in the assay with HCT-116 colon and 216 nM with MDA-MB-435. For the same molecule, the TGI in the assay on NCI/ADR-RES ovarian amounted to 27.1 µM; with OVCAR-5 ovarian, 14.2 µM; in the assay with OVCAR-8 ovarian, 5.07 µM; in the assay on BT-549 breast, 1.67 µM; in the assay with RPMI-8226 leukemia, 8.87 µM; with NCI-H226 lung, 5.43 µM. Besides, the TGI in the assay on OVCAR-4 ovarian was determined as 12.7 µM; with HOP-92 NSCLC, 3.34 µM; in the assay on HCT-116 colon it was 10.4 µM; in the assay with MDA-MB-435 it was 3.81 µM.
Consider `COc1ccc2[nH]cc(C3(c4c[nH]c5ccc(OC)cc45)C(=O)Nc4ccc(F)cc43)c2c1`, for which the GI50 was 5.76 µM with NCI/ADR-RES ovarian; 2610 nM with OVCAR-5 ovarian; 2750 nM in the assay with OVCAR-8 ovarian; 3210 nM in the assay with BT-549 breast; 4410 nM with RPMI-8226 leukemia; 2580 nM in the assay with NCI-H226 lung. The GI50 in the assay with OVCAR-4 ovarian is 2760 nM; in the assay on HOP-92 NSCLC, 2390 nM; with HCT-116 colon it was 1760 nM; in the assay on MDA-MB-435, 1970 nM. Also, the TGI was 31.1 µM with NCI/ADR-RES ovarian; 8.93 µM with OVCAR-5 ovarian; 9.67 µM in the assay with OVCAR-8 ovarian; 11.7 µM in the assay on BT-549 breast; over 100 µM with RPMI-8226 leukemia; 12 µM in the assay on NCI-H226 lung. The TGI in the assay on OVCAR-4 ovarian came out at 11.6 µM; in the assay on HOP-92 NSCLC, 9.24 µM; with HCT-116 colon it was 3.16 µM; in the assay on MDA-MB-435, 4.73 µM.
Consider `COc1cc2c3c(n(C)c(=O)c2cc1OC)-c1cc2c(cc1/C3=C\CN)OCO2`, for which the GI50 was 1.21 µM with NCI/ADR-RES ovarian; 2160 nM in the assay on OVCAR-5 ovarian; 774 nM in the assay on OVCAR-8 ovarian; 307 nM in the assay on RPMI-8226 leukemia; 515 nM in the assay on NCI-H226 lung; 5550 nM in the assay with OVCAR-4 ovarian. Besides, the GI50 in the assay with HOP-92 NSCLC is 2090 nM; with HCT-116 colon, 71.3 nM; in the assay on MDA-MB-435, 819 nM. For the same molecule, the TGI in the assay on NCI/ADR-RES ovarian is 68.7 µM; with OVCAR-5 ovarian it was over 35.7 µM; in the assay on OVCAR-8 ovarian, over 51.9 µM; with BT-549 breast, over 100 µM; with RPMI-8226 leukemia it was 4.9 µM; in the assay on NCI-H226 lung, 15.2 µM. For the same molecule, the TGI in the assay on OVCAR-4 ovarian was over 27.2 µM; in the assay on HOP-92 NSCLC, over 77.1 µM; in the assay on HCT-116 colon it was 0.437 µM; with MDA-MB-435, 33.8 µM.
Take `CO/N=C(\COc1ccc2c(c1)oc(=O)c1cc(OC)ccc12)c1ccc(OC)cc1`: the GI50 is over 100 µM with NCI/ADR-RES ovarian; over 100000 nM in the assay with OVCAR-5 ovarian; over 100000 nM in the assay on OVCAR-8 ovarian; over 100000 nM in the assay with BT-549 breast; over 100000 nM in the assay on RPMI-8226 leukemia; over 100000 nM with NCI-H226 lung. In addition, the GI50 in the assay on OVCAR-4 ovarian was 20500 nM; in the assay with HOP-92 NSCLC it was over 100000 nM; in the assay with HCT-116 colon it was over 100000 nM; with MDA-MB-435, over 100000 nM. Moreover, the TGI in the assay with NCI/ADR-RES ovarian, with OVCAR-5 ovarian, with OVCAR-8 ovarian, with BT-549 breast, in the assay with RPMI-8226 leukemia and in the assay on NCI-H226 lung was over 100 µM in each case. For the same molecule, the TGI in the assay with OVCAR-4 ovarian, with HOP-92 NSCLC, in the assay on HCT-116 colon and in the assay on MDA-MB-435 was over 100 µM each time.
For the molecule `COc1c(OC[C@H](O)CN2CCOCC2)ccc2c3n(c(=NC(=O)c4cccnc4C)nc12)CCN3`, the GI50 in the assay on NCI/ADR-RES ovarian was over 50 µM; in the assay with OVCAR-5 ovarian, 171 nM; in the assay with OVCAR-8 ovarian, over 50000 nM; in the assay on BT-549 breast, 365 nM; in the assay with RPMI-8226 leukemia, over 50000 nM; in the assay with NCI-H226 lung, 15400 nM. Further, the GI50 in the assay on OVCAR-4 ovarian is over 50000 nM; in the assay on HOP-92 NSCLC, 63.7 nM; with HCT-116 colon, 24200 nM; in the assay on MDA-MB-435, 14100 nM. The TGI in the assay on NCI/ADR-RES ovarian is over 50 µM; with OVCAR-5 ovarian, over 50 µM; in the assay on OVCAR-8 ovarian, over 50 µM; with BT-549 breast, 46.6 µM; in the assay on RPMI-8226 leukemia it was over 50 µM; in the assay with NCI-H226 lung, over 50 µM. The TGI is over 50 µM with OVCAR-4 ovarian, 10.1 µM in the assay on HOP-92 NSCLC, over 50 µM in the assay with HCT-116 colon and over 50 µM with MDA-MB-435.
In the case of `[Cl][Hg][c]1cc[c]([Hg][Cl])o1`, the GI50 was 8.25 µM in the assay on NCI/ADR-RES ovarian; 7170 nM in the assay with OVCAR-5 ovarian; 3390 nM in the assay with OVCAR-8 ovarian; 1990 nM in the assay with BT-549 breast; 1660 nM with RPMI-8226 leukemia; 21800 nM with NCI-H226 lung. Further, the GI50 in the assay with OVCAR-4 ovarian is 1630 nM; in the assay with HOP-92 NSCLC, 1770 nM; with HCT-116 colon, 6400 nM; with MDA-MB-435, 3400 nM. For the same molecule, the TGI in the assay on NCI/ADR-RES ovarian is over 100 µM; in the assay with OVCAR-5 ovarian it was 23.9 µM; with OVCAR-8 ovarian, 34.6 µM; in the assay on BT-549 breast, 8.67 µM; in the assay with RPMI-8226 leukemia, 7.34 µM; in the assay with NCI-H226 lung, 51.8 µM. The TGI with OVCAR-4 ovarian was determined as 4.24 µM; in the assay on HOP-92 NSCLC, 3.52 µM; with HCT-116 colon, 20.7 µM; with MDA-MB-435, 14.4 µM.
